Key:
[1] = target: T1, recombinant human calpain-2 (hcalpain-2) (Homo sapiens, UniProt P17655); test: Inhibition of recombinant human calpain-2; type: biochemical
T1 sequence (P17655 1-700): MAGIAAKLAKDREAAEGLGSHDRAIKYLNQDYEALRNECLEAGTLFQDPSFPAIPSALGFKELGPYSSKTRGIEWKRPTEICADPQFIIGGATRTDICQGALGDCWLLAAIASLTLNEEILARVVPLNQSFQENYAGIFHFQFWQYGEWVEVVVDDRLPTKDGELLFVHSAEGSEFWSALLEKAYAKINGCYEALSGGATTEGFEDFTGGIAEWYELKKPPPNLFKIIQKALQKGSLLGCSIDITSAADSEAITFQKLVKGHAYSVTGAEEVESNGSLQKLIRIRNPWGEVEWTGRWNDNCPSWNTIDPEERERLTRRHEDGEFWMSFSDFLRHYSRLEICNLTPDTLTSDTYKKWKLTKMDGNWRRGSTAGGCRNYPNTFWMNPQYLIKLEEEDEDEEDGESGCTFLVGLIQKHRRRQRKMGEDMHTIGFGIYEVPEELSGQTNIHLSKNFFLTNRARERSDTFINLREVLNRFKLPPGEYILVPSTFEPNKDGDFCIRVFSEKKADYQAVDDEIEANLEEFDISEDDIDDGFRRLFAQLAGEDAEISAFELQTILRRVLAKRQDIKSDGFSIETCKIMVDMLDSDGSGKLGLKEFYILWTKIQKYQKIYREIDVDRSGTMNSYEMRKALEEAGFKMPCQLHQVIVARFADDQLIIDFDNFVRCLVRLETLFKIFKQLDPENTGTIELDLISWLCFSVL
T1 sequence (P04632 1-268 partner): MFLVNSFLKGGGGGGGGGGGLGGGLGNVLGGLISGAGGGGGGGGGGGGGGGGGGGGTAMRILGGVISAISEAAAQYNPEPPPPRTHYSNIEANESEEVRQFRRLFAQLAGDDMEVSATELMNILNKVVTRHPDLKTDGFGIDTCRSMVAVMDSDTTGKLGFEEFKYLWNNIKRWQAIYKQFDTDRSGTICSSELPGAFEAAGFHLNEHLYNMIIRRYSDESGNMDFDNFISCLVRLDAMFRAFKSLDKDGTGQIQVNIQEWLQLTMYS
Description: Various concentrations of NA112 in the liposomal formulation were incubated with human calpain-1 (purified from erythrocytes, ecalpain-1) or a recombinant human calpain-2 (hcalpain-2) and calpain activity assayed as in FIG. 1. IC50 were determined and transformed into Ki values (FIG. 10A, 10B). Values previously obtained with NA112 dissolved in DMSO are shown for comparison (FIG. 10B).
Cerebellar homogenates from wild-type (WT) or calpain-1 Knock-out (KO) mice were incubated with 20 μM calcium to activate calpain-1 or with 2 mM calcium to activate calpain-2, respectively, and increasing concentrations of NA184.
Like in NA112, there are 2 chiral centers in NA184. The inhibitory activity of the compounds NA184A (S-S isomer) and NA184B (S-R stereoisomer) against erythrocyte human calpain-1 (ecalpain-1) and recombinant human calpain-2 (hcalpain-2) were determined.

calpain-1 = target: T2, calpain-1 (Mus musculus, UniProt O35350); test: Calpain-1 activity in brain after TBI in mice; type: in vivo; parameters: from tissue; host or cells: mouse brain after TBI; conditions: 1 mg/kg i.p., 24 h after TBI
T2 sequence (O35350 1-713): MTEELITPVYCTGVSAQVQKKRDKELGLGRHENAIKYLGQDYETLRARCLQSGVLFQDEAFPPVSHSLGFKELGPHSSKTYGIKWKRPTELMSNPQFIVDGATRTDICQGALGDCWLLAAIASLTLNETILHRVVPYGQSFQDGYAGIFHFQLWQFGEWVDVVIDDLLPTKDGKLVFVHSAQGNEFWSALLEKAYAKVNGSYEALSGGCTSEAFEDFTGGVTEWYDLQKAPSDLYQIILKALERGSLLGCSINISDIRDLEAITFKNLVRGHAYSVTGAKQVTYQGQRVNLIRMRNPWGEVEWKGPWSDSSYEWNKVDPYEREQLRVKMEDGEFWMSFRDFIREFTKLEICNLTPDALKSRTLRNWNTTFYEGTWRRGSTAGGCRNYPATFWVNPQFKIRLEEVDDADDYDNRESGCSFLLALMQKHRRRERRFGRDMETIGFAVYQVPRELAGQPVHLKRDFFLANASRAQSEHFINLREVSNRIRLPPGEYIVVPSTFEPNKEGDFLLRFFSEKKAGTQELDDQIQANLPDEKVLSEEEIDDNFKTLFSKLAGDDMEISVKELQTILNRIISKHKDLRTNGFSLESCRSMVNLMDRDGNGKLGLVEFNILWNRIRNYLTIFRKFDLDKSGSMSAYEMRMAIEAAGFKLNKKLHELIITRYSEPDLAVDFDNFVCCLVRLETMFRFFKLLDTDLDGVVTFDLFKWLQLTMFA
T2 sequence (O88456 1-268 partner): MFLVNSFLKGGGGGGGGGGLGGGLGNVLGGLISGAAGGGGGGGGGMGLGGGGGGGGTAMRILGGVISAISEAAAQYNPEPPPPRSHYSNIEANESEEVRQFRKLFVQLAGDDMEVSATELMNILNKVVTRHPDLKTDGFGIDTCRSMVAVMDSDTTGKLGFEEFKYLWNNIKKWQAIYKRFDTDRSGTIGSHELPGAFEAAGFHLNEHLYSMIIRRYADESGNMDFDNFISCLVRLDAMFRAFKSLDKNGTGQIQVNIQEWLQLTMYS
Description: We also performed the same model of TBI in male and female mice and in male and female rats. In all cases, NA184 was injected i.p. at 1 mg/kg. For the rat experiments, NA184 was injected twice at 1 h and 8 h after TBI. Animals were sacrificed 24 h after TBI and calpain activity was assayed in brain and cell death was analyzed in cortex. […] In addition, there was a highly significant correlation between calpain-2 activity and cell death in rats (FIG. 23). R^2 was 0.61 and p<0.005.

[2] = Stability in mouse plasma at 37° C. (residual inhibition of purified human calpain-2); type: in vitro ADME; conditions: mouse, mouse plasma, B-cyclodextrin formulation, 0.2 mM, read-out: Estimated half-life in mouse plasma (converted)
Description: NA112 (C12, 0.2 mM) was incubated with mouse plasma at 37° C. for the indicated periods of time. Aliquots were taken and the degree of inhibition of purified human calpain-2 was measured. Results were normalized to the maximum degree of inhibition (100%) measured at to.
NA112A in β-cyclodextrin formulation (10 μM) was incubated in mouse plasma at 37° C. for the indicated periods of time. Aliquots were taken and the degree of inhibition of purified human calpain-2 was measured. Results were normalized to the maximum degree of inhibition (50%) measured at t0.

[3] = Stability in mouse liver homogenate (residual inhibition of purified human calpain-2); type: in vitro ADME; conditions: B-cyclodextrin formulation, read-out: Estimated half-life in mouse liver homogenate (converted)
Description: Aliquots were taken and the degree of inhibition of purified human calpain-2 was measured. Results were normalized to the maximum degree of inhibition (100%) measured at t0.

Structure (SMILES): CCC(NC(=O)[C@H](CC(C)C)NC(=O)NCc1ccccc1)C(=O)C(=O)NCc1cccc(Cl)c1OC (stereo partly drawn) [NA184, (2S)-2-(3-benzylureido)-N-(1-((3-chloro-2-methoxybenzyl)amino)-1,2-dioxopentan-3-yl)-4-methylpentanamide]
- IC50 [1]: 85 nM
- Ki [1]: 54 nM
- Calpain-1 inhibition in brain, male and female mice (calpain-1): not calpain-1

Structure (SMILES): CCC(NC(=O)[C@H](CC(C)C)NC(=O)NCc1ccccc1)C(=O)C(=O)NCc1cc(OC)cc(OC)c1 (mixture of isomers) [NA112, (2S)-2-(3-benzylureido)-N-(1-((3,5-dimethoxybenzyl)amino)-1,2-dioxopentan-3-yl)-4-methylpentanamide]
- half-life at 0.2 mM [2]: 17 h
- half-life [3]: 15 h

Reference: patent US12606520B2, “Calpain-2 inhibitor compounds and methods of treatment” (WESTERN UNIVERSITY OF HEALTH SCIENCES, priority 2020, dated 2026)
